For assay [1], the system named is Human immunodeficiency virus 1. The assay is described as follows: Antiviral activity against HIV-1 assessed as viral growth inhibition. The class given is functional, organism-based.
Assay [2] relates to Human immunodeficiency virus 1. The assay is described as follows: Antiviral activity against HIV-1 infected in human CEM-GFP cells assessed as inhibition of viral replication incubated for 68 hrs by MTT assay. The assay is classed as functional, organism-based. The following applies: Human immunodeficiency virus 1, CEM-GFP. For orientation: Tetrazolium assays rely on reduction of a dye to a coloured formazan, in cell work by metabolically active cells.

The test system of assay [3] is Human immunodeficiency virus 1. The assay is described as follows: Antiviral activity against HIV-1 IIIB infected in human MT4 cells assessed as reduction in cytopathic effect measured after 5 days by Cell Titer Glo assay. The assay is classed as functional, organism-based. The following applies: Human immunodeficiency virus 1, IIIB, MT4, 120 h.
Assay [4] relates to Human immunodeficiency virus 1. The assay is described as follows: Antiviral activity against HIV-1 infected in human C8166 cells assessed as reduction in virus-induced cytopathic effect by MTT assay. The class given is functional, organism-based. The following applies: Human immunodeficiency virus 1, C8166. In general terms: Damage to the host cells serves as the signal in cytopathic effect assays.

The target in assay [5] is Human immunodeficiency virus type 1 reverse transcriptase (Human immunodeficiency virus 1) (UniProt Q72547). The assay is described as follows: Inhibition of recombinant HIV-1 reverse transcriptase at 200 ug/ml by ELISA relative to control. The following applies: dose 200.0 µg/ml.
The target of assay [6] is T1, Human immunodeficiency virus type 1 reverse transcriptase (Human immunodeficiency virus 1, UniProt Q72547). The assay is described as follows: Inhibition of HIV-1 LTR reverse transcriptase infected in human CEM cells using RNA template incubated for 1 hr by RT-PCR based cell-free assay.
The test system of assay [7] is Human immunodeficiency virus 1. The assay is described as follows: Antiviral activity against HIV-1 NL4-3 infected in human TZM-bl cells assessed as viral growth inhibition by luciferase assay. The assay is classed as functional, organism-based. The following applies: Human immunodeficiency virus 1, NL4-3, TZM-bl.
Assay [8] deals with Human immunodeficiency virus type 1 protease (Human immunodeficiency virus 1) (UniProt Q72874). The assay is described as follows: Inhibition of HIV-1 protease relative to control. The following applies: concentration not given here.
For assay [9], the system named is Human immunodeficiency virus 1. The assay is described as follows: Antiviral activity against HIV-1 infected in PBMC (unknown origin) assessed as viral growth inhibition. The class given is functional, organism-based. Conditions: Human immunodeficiency virus 1, PBMC.
In another assay the test system is C8166. The assay is described as follows: Cytotoxicity against human C8166 cells assessed as reduction in cell viability by MTT assay. The assay is classed as functional.
Assay [10] concerns the target Human immunodeficiency virus type 1 integrase (Human immunodeficiency virus 1, UniProt Q7ZJM1). The assay is described as follows: Inhibition of recombinant HIV-1 subtype C integrase using double-stranded FITC-labelled target DNA as substrate pre-incubated for 45 mins followed by substrate addition measured after 60 mins by strand transfer inhibition assay.
Assay [11] has as its target Human immunodeficiency virus type 1 reverse transcriptase (Human immunodeficiency virus 1) (UniProt Q72547). The assay is described as follows: Displacement of [3H]TTP/polyA from HIV-1 reverse transcriptase at 200 ug/ml relative to control. Conditions: dose 200.0 µg/ml. For orientation: Displacement assays read how much labelled ligand stays bound in the presence of the test substance.

Assay [12] has as its system Human immunodeficiency virus 1. The assay is described as follows: Antiviral activity against HIV-1 NL4-3 infected in human MT4 cells assessed as reduction in viral replication incubated for 48 hrs followed by addition of fresh medium containing compound measured after 2 days by ELISA. Conditions: Human immunodeficiency virus 1, NL4-3, MT4, 48 h. The class given is functional, organism-based.

Assay [13] has as its target T1, Human immunodeficiency virus type 1 reverse transcriptase. The assay is described as follows: Inhibition of HIV-1 reverse transcriptase using ABTS as substrate and RNA template primed with oligo(dT)12-18 in presence of digoxigenin/biotin-labeled nucleotides by ELISA.

Results on 27 compounds are retold here after ChEMBL document CHEMBL5113385, “Natural products and synthetic analogues against HIV: A perspective to develop new potential anti-HIV drugs” (Eur J Med Chem, 2022).

By IC50 is commonly meant the concentration at which inhibition is half-maximal. The term EC50 denotes the concentration at which the effect is half-maximal. The inhibition is how much of the control response was suppressed. By CC50 is commonly meant the concentration at which the toxic effect on the cells reaches its halfway point.

Sequence of Human immunodeficiency virus type 1 integrase (Q7ZJM1 whole entry): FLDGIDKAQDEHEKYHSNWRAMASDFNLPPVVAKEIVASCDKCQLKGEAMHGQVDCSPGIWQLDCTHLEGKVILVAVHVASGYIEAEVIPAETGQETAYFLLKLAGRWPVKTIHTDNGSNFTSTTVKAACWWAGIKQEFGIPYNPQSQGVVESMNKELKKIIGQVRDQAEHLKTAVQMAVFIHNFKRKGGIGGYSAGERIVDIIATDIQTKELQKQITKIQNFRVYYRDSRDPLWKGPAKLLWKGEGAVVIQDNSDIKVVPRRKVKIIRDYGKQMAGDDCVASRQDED

With `CCn1cc(C(=O)O)c(=O)c2cc(F)c(N3CCN(S(=O)(=O)c4ccc(OC)cc4)CC3)cc21`, the IC50 in [1] is 50 nM.

In the case of `Cc1cc(=O)c2ccc(N=C=S)cc2o1`, in assay [2], the IC50 was found to be 1000 nM.

As to `COc1cc(F)c(C(=O)c2cc(N)nc(Nc3ccc(C#N)cc3)n2)c(F)c1`, in assay [3], the IC50 came to 4.2 nM.

Regarding `C=CC(CO)[C@@H]1C[C@H]2c3[nH]c4ccccc4c3CCN2C(=O)[C@@H]1CO` (some centres not stated), the EC50 in assay [4] turned out to be 12200 nM.

Turning to `O=C1C[C@@H](c2ccc(O)cc2)Oc2cc(O)cc(O)c21`, the inhibition in assay [5] came out at 44.2%.

In assay [6], `C#CCOCc1cn(C2CCON2C(=O)OCc2ccccc2)c(=O)[nH]c1=O` (configuration not stated) gave an IC50 of 50 nM.

With `CC(C)=CCc1cc(/C=C/C(=O)O)cc(CC=C(C)C)c1`, the inhibition in assay [5] is 41.6%.

Regarding `CCCCCOC(=O)C[C@H](NP(=O)(CO[C@@H](CF)Cn1ccc2c(=O)[nH]c(N)nc21)N[C@@H](CC(=O)OCCCCC)C(=O)OCCCCC)C(=O)OCCCCC`, the IC50 in assay [7] worked out at 2000 nM.

In the case of `C=C(C)[C@@H]1CC[C@@H]2[C@]3(CC[C@]4(C)[C@@H]([C@H](C)CC/C=C(/C)C(=O)O)CC[C@@]24C)C[C@]13CCC(=O)O`, the inhibition in [8] was determined as 89.2%.

`COc1cc(O)c(-c2c(C)cc(O)c3c2Cc2cccc(O)c2C3=O)c(O)c1C(C)=O`: the EC50 in assay [9] turned out to be 4300 nM.

In turn, `C=CCOCc1cn(C2CCON2C(=O)OCc2ccccc2)c(=O)[nH]c1=O` (configuration not stated) had a half-maximal inhibitory concentration (IC50) in assay [6] of 10 nM.

On to `CO[C@H](Cc1cc2ccc(=O)oc2cc1O)C(C)(C)O`, for which the CC50 with C8166 was more than 200000 nM.

`COc1cc2c(c(O)c1C)Oc1c(C=O)c(O)cc(C)c1C(=O)O2`: in assay [10], the IC50 amounted to 4650 nM.

`CC1(C)Oc2cc3oc(=O)ccc3cc2[C@@H](O)[C@@H]1O`: in the assay on C8166, the CC50 is more than 200000 nM.

On to `C=CC(CO)[C@@H]1C[C@H]2c3[nH]c4ccccc4c3CCN2C(=O)[C@H]1CO` (some centres not stated), for which, in assay [4], the EC50 came out at 12200 nM.

Consider `COc1cc2cc3c(cc2oc1=O)OC(C)(C)CC3`, for which the CC50 with C8166 is more than 200000 nM.

On to `O=c1cc(-c2ccc(O)cc2)oc2c([C@@H]3O[C@H](CO)[C@@H](O)[C@H](O)[C@H]3O)c(O)cc(O)c12`, for which the inhibition in assay [11] is 56.9%.

As for `COc1cc(-c2oc3cc(O)cc(O)c3c(=O)c2O)ccc1O`, the inhibition in assay [5] worked out at 57%.

With `CCCCC/C=C\C=C/O[C@@]12[C@@H]([C@H]3OCO[C@@]3(C(C)=O)[C@H](OC(C)=O)[C@H]1C)[C@@H]1O[C@]1(CO)[C@@H](O)[C@]1(O)C(=O)C(C)=C[C@H]12`, the IC50 in assay [12] amounted to 0.9 nM.

As to `CCCCC/C=C/C=C/O[C@@]12[C@@H]([C@H]3OCO[C@@]3(C(C)=O)[C@H](OC(=O)CCCCC)[C@H]1C)[C@@H]1O[C@]1(CO)[C@@H](O)[C@]1(O)C(=O)C(C)=C[C@H]12`, the IC50 in assay [12] is 0.9 nM.

Consider `C=CC(C)(C)c1cc2cc(C[C@@H](O)C(C)(C)O)c(O)cc2oc1=O`, for which the CC50 in the assay with C8166 was more than 200000 nM.

Consider `CCCCC/C=C/C=C/O[C@@]12[C@@H]([C@H]3OCO[C@@]3(C(C)=O)[C@H](OC(=O)CCCC)[C@H]1C)[C@@H]1O[C@]1(CO)[C@@H](O)[C@]1(O)C(=O)C(C)=C[C@H]12`, for which the IC50 in [12] amounted to 0.9 nM.

In the case of `CCOc1ccc(S(=O)(=O)N2CCN(c3cc4c(cc3F)c(=O)c(C(=O)O)cn4CC)CC2)cc1`, in [1], the IC50 was 80 nM.

Turning to `COC(=O)/C=C/c1c(-c2cccs2)[nH]c2ccccc12`, the IC50 in assay [13] turned out to be 720 nM.

As to `CC(C)(O)C(=O)Cc1cc2ccc(=O)oc2cc1O` [PEUCEDANONE], the CC50 in the assay with C8166 is more than 200000 nM.

On to `CC(=O)[C@@H]1Cc2cc3ccc(=O)oc3cc2O1`, for which the CC50 in the assay on C8166 was more than 200000 nM.

Consider `COc1cc(F)c(Nc2cc(N)nc(Nc3ccc(C#N)cc3)n2)c(F)c1`, for which the IC50 in assay [3] came to 2 nM.
